Experimental data taken from patent US20260028340A1 (Supernus Pharmaceuticals, Inc., priority 2023, published 2026).

Experiments:
[1] = Storage stability in acetonitrile or acetonitrile/water solution at room temperature; assay type: physicochemical; details: for decomposition in acetonitrile/water: crude product in acetonitrile/water, kept at room temperature overnight
Description: Preparatory HPLC of the crude product gave a mixture of the desired compound in addition to some Compound A (formed during the HPLC separation). After the product was treated with dichloromethane, the solution was dried over MgSO4, and was evaporated to give 15 mg of the ether derivative I-5 as an oily solid (97.7% by HPLC). After the sample was stored for 2 days at room temperature (RT) in acetonitrile solution, it had decomposed to approximately 85% purity with the main byproduct being a ring-opened form of Compound A.
(§1) 3,3-dimethylacrylic acid (96 mg, 0.96 mmol) and HATU (366 mg, 0.96 mmol) were mixed in 2 mL of DMF and 280 μL of DIPEA was added to the mixture. After the addition of Compound A (183 mg, 0.64 mmol), the mixture was stirred for 2 min. Additional DIPEA (280 μL) was added to the solution, and the yellow solution was stirred at room temperature for 2 hr. After the addition of water, the mixture was extracted with EtOAc (4×). The extract was washed with brine (4×), was dried over MgSO4, and was evaporated. […] This material was purified by prep HPLC to obtain 58 mg of II-7 (86% pure) that contained a later eluting byproduct. A sample was assayed for stability in water (63% at the 24-hour time point) and in a pH 7.4 buffer (77% at the 24 hour time point).
Geranic acid ([…], 0.96 mmol) and HATU (366 mg, 0.96 mmol) were mixed in 2 mL of DMF. Following the addition of 280 μL of DIPEA to the solution, Compound A (180 mg, 0.64 mmol) was added to the solution, and the mixture was stirred for 2 min. Additional DIPEA (280 μL) was added, and the yellow solution was stirred at room temperature for 2 hr. Following the addition of water, the mixture was extracted with EtOAc (4×). The extract was washed with brine (4×), was dried over MgSO4, and was evaporated. The crude product II-9 appeared by HPLC to be over 70% in one peak.

[2] = Stability in water and in a pH 7.4 buffer; assay type: physicochemical; details: after 24 hours
Description: A sample of the 15 mg isolated material was evaluated for stability in water and in a pH 7.4 buffer. After 24 hours, the sample in water had 86% remaining and the sample in the pH 7.4 buffer had 92% remaining. The decomposition gave mainly the ring-opened Compound A as a byproduct.
as §1

Compound	decomposition in acetonitrile/water [1]	remaining, stability in pH 7.4 buffer [2] [%]	remaining, stability in water [2] [%]	purity after storage in acetonitrile solution ([1]; stored for 2 days at room temperature in acetonitrile solution, initial 97.7% by HPLC)
CC(C)=CCC/C(C)=C/C(=O)N1CCN=C1c1ccccc1C(=O)c1ccc(Cl)cc1 [II-9, (E)-1-(2-(2-(4-chlorobenzoyl)phenyl)-4,5-dihydro-1H-imidazol-1-yl)-3,7-dimethylocta-2,6-dien-1-one]	complete decomposition occurred	–	–	–
COC(=O)COC1(c2ccc(Cl)cc2)c2ccccc2C2=NCCN21 (stereo not shown) [Compound I-5, methyl 2-((5-(4-chlorophenyl)-2,5-dihydro-3H-imidazo[2,1-a]isoindol-5-yl)oxy)acetate]	–	92	86	approximately 85%
CC(C)=CC(=O)N1CCN=C1c1ccccc1C(=O)c1ccc(Cl)cc1 [II-7, 1-(2-(2-(4-chlorobenzoyl)phenyl)-4,5-dihydro-1H-imidazol-1-yl)-3-methylbut-2-en-1-one]	significant decomposition occurred	77	63	–
